According to the supplement of paper PMC10307832:

Tests used:
Assay in all cases: relative viability (nuclei count vs DMSO), 5 days (fraction); higher = more cells survive
[1] = compound: CN1CCC(CNc2ccc3ncc(-c4cccc(OC(F)(F)F)c4)n3n2)CC1 [SGI-1776] + CS(=O)(=O)N1CCN(Cc2cc3nc(-c4cccc5[nH]ncc45)nc(N4CCOCC4)c3s2)CC1 [Pictilisib] (partner 1 µM)
Summary of the method: (§1)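 Relative viability divides the nuclei count in treated wells by that in vehicle wells. Lung cancer cell lines were seeded in 1536-well plates, dosed by pin tool the next day, and fixed and stained after 5 days in one step with final 0.05% Triton X-100, 1% formaldehyde and 1 ug/ml Hoechst. Dosing was a single drug or a fixed anchor-drug dose plus five library-drug doses (not always all listed) in √10 steps, and values are medians of duplicate plates imaged at 4×.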

[2] = compound: CN1CCC(CNc2ccc3ncc(-c4cccc(OC(F)(F)F)c4)n3n2)CC1 [SGI-1776] + Nc1nc2[nH]cc(CCc3ccc(C(=O)N[C@@H](CCC(=O)O)C(=O)O)cc3)c2c(=O)[nH]1 [Pemetrexed] (partner 0.2 µM)
Summary of the method: as §1

[3] = compound: C1COCCN1C2=NC(=NC3=C2OC4=C3C=CC=N4)C5=CC(=CC=C5)NC(=O)C6=CN=C(C=C6)N + O=C(c1cc(Cc2n[nH]c(=O)c3ccccc23)ccc1F)N1CCN(C(=O)C2CC2)CC1 [Olaparib] (partner 8 µM)
Summary of the method: as §1

[4] = compound: Nc1ccccc1NC(=O)c1ccc(CNC(=O)OCc2cccnc2)cc1 [Entinostat] + CC(=O)Nc1cccc(-n2c(=O)n(C3CC3)c(=O)c3c(Nc4ccc(I)cc4F)n(C)c(=O)c(C)c32)c1 [Trametinib] (partner 0.02 µM)
Summary of the method: as §1

| Cell Line | relative viability ([1]; first compound 0.08 µM) | relative viability ([1]; first compound 0.8 µM) | relative viability ([1]; first compound 2.53 µM) | relative viability ([1]; first compound 8 µM) | relative viability ([2]; first compound 0.08 µM) | relative viability ([2]; first compound 0.8 µM) | relative viability ([2]; first compound 2.53 µM) | relative viability ([2]; first compound 8 µM) | relative viability ([3]; first compound 0.02 µM) | relative viability ([3]; first compound 0.06325 µM) | relative viability ([3]; first compound 0.2 µM) | relative viability ([3]; first compound 0.6325 µM) | relative viability ([3]; first compound 2 µM) | relative viability ([4]; first compound 0.02 µM) | relative viability ([4]; first compound 0.06325 µM) | relative viability ([4]; first compound 0.2 µM) | relative viability ([4]; first compound 0.6325 µM) | relative viability ([4]; first compound 2 µM) |
| --- | --- | --- | --- | --- | --- | --- | --- | --- | --- | --- | --- | --- | --- | --- | --- | --- | --- | --- |
| LXF-289 | 0.699 | 0.837 | 0.806 | 0.67 | 0.875 | 1 | 0.808 | 0.9 | 1.13 | 1.18 | 1.17 | 1.06 | 0.803 | 0.642 | 0.653 | 0.652 | 0.408 | 0.453 |
| NCI-H1703 | 0.242 | 0.22 | 0.251 | 0.181 | – | – | – | – | 0.335 | 0.447 | 0.372 | 0.308 | 0.222 | – | – | – | – | – |
| NCI-H2170 | 0.297 | 0.281 | 0.284 | 0.238 | 0.225 | 0.287 | 0.254 | 0.295 | 0.736 | 0.652 | 0.528 | 0.624 | 0.41 | 0.972 | 0.888 | 0.752 | 0.579 | 0.402 |
| NCI-H522 | – | – | – | – | 0.953 | 0.867 | 0.98 | 0.889 | 0.584 | 0.649 | 0.63 | 0.554 | 0.525 | 0.812 | 0.966 | 0.799 | 0.844 | 0.841 |
| LOU-NH91 | 0.565 | 0.55 | 0.505 | 0.504 | 0.371 | 0.371 | 0.405 | 0.446 | 0.928 | 0.959 | 0.942 | 0.864 | 0.745 | 0.777 | 0.771 | 0.804 | 0.739 | 0.674 |
| NCI-H1355 | 0.488 | 0.494 | 0.439 | 0.364 | 1.09 | 1.07 | 1.01 | 1.03 | 0.736 | 0.886 | 0.781 | 0.757 | 0.572 | 0.443 | 0.402 | 0.337 | 0.344 | 0.243 |
| NCI-H322M | 0.571 | 0.483 | 0.473 | 0.445 | 0.648 | 0.65 | 0.59 | 0.504 | 0.793 | 0.77 | 0.685 | 0.943 | 0.586 | 0.546 | 0.534 | 0.542 | 0.525 | 0.502 |
| NCI-H1395 | 0.591 | 0.64 | 0.542 | 0.494 | 0.876 | 0.836 | 0.784 | 0.605 | 0.473 | 0.427 | 0.422 | 0.461 | 0.377 | 1.08 | 1.09 | 0.977 | 0.79 | 0.699 |
| NCI-H2023 | 0.23 | 0.23 | 0.202 | 0.147 | 0.282 | 0.222 | 0.244 | 0.174 | 0.587 | 0.519 | 0.379 | 0.463 | 0.316 | 0.467 | 0.473 | 0.226 | 0.127 | 0.0998 |
| Calu-6 | 0.974 | 0.911 | 0.808 | 0.482 | – | – | – | – | 0.685 | 0.68 | 0.604 | 0.528 | 0.467 | – | – | – | – | – |
| NCI-H2342 | – | – | – | – | 0.815 | 0.888 | 0.802 | 0.819 | 0.472 | 0.46 | 0.402 | 0.391 | 0.4 | 0.855 | 0.659 | 0.713 | 0.605 | 0.673 |
| NCI-H1563 | 0.707 | 0.588 | 0.583 | 0.467 | 0.929 | 0.847 | 0.765 | 0.726 | – | – | – | – | – | – | – | – | – | – |
| IA-LM | 0.281 | 0.328 | 0.389 | 0.242 | – | – | – | – | 0.858 | 0.826 | 0.689 | 0.616 | 0.394 | – | – | – | – | – |
| NCI-H1299 | 0.821 | 0.832 | 0.596 | 0.505 | – | – | – | – | 0.928 | 1.04 | 0.993 | 0.962 | 0.754 | – | – | – | – | – |
| NCI-H727 | 0.398 | 0.626 | 0.376 | 0.285 | – | – | – | – | 0.723 | 0.802 | 0.746 | 0.605 | 0.606 | 0.368 | 0.365 | 0.347 | 0.331 | 0.273 |
| SW 900 | – | – | – | – | 0.488 | 0.486 | 0.493 | 0.46 | 0.981 | 0.945 | 0.743 | 0.804 | 0.655 | 0.793 | 0.752 | 0.614 | 0.766 | 0.347 |
| ABC-1 | 0.675 | 0.666 | 0.745 | 0.66 | – | – | – | – | 0.767 | 0.945 | 0.726 | 1.04 | 0.685 | – | – | – | – | – |
| NCI-H1648 | – | – | – | – | 0.617 | 0.868 | 0.688 | 0.683 | 0.83 | 0.8 | 0.666 | 0.566 | 1.18 | 0.507 | 0.682 | 0.436 | 0.653 | 0.472 |
| A549 | 0.566 | 0.513 | 0.392 | 0.267 | – | – | – | – | 0.39 | 0.353 | 0.311 | 0.243 | 0.239 | – | – | – | – | – |
